Data taken from US20240252535A1, “CELLULAR COMPOSITION FOR TREATMENT OF DISEASES, DISORDERS OR CONDITIONS AND METHOD OF USE” (priority 2020, published 2024).
pKi: −log10 of the molar value. Structures can show the parent of a compound that is named as a salt.

Columns and labels:
[1] = tested on: Raji cells; assay: CAR-T cell killing of luciferase-expressing Raji cells after pretreatment of CAR-T cells with serotonergic agonist; format: cell-based, human; settings: for enhancement of killing of Raji cells: CD19 CAR-T cells preincubated one hour with 5×10^−5, 1×10^−4 or 2×10^−4 M agonist, washed, co-cultured 4 hours, versus unstimulated CAR-T cells; for level of killing of Raji cells: E:T ratio 3:1, agonist-stimulated CAR-T cells, 1% Triton-X100 control set as 100% killing
Procedure: Pergolide mesylate and 8-OH-DPAT (Sigma) were each dissolved in dimethyl sulfoxide (DMSO) to 2×10^−2 M. The solutions were subsequently diluted in Basal CAR-T medium (ProMab (Richmond, CA)) supplemented with 10% fetal bovine serum, 100U/mL sodium penicillin G (Rafa, Jerusalem) and 1000U/mL streptomycin (Rafa, Jerusalem), in a serial manner, to the indicated final concentrations. CD19 scFv-4-1BB-CD3ζ CAR-T cells (CAT. PM-CAR1002-1M) purchased from ProMab (Richmond, CA) were incubated with the diluted pergolide mesylate or 8-OH-DPAT for one hour, at 37° C. and 5% C02. The cells were pelleted by centrifugation and washed with regular cell growth medium to remove pergolide mesylate and 8-OH-DPAT prior to co-culture with target luciferase Raji cells.
Luciferase Raji cells stably expressing luciferase (Raji/NF-kB Reporter (Luc) stable cell line Cat. CL-1280) were purchased from FenicsBio (Halethorpe, MD) and grown in RPMI medium (Gibco Cat. 21875-034) supplemented with 10% fetal bovine serum, 100U/mL sodium penicillin G (Rafa, Jerusalem) and 1000 U/mL streptomycin (Rafa, Jerusalem), at 37° C. and 5% C02.
Target 2.5×10^3 Raji-luc cells were cultured, at 37° C. and 5% CO2, in each well of 96-well plates, either in medium, medium containing 1% Triton-X100 (Sigma), or with effector CAR-T cells, at an effector:target cell ratio of 0.5:1, 1:1, or 3:1 for 4 hours. Four replicate wells were prepared for each type of sample. Following the incubation period, the cells were incubated with 50 μL of reconstituted reagent (Bright-Glo Luciferase Assay System, E2620) for 2 min to detect the fluorescence intensity (FLUOstar OMEGA). The fluorescence intensity of the 1% Triton-X100 control was set as 100% killing.

[2] = biological target: 5-HT2A (Homo sapiens, UniProt P28223); settings: cited from earlier work
Chain of 5-HT2A (P28223 whole entry): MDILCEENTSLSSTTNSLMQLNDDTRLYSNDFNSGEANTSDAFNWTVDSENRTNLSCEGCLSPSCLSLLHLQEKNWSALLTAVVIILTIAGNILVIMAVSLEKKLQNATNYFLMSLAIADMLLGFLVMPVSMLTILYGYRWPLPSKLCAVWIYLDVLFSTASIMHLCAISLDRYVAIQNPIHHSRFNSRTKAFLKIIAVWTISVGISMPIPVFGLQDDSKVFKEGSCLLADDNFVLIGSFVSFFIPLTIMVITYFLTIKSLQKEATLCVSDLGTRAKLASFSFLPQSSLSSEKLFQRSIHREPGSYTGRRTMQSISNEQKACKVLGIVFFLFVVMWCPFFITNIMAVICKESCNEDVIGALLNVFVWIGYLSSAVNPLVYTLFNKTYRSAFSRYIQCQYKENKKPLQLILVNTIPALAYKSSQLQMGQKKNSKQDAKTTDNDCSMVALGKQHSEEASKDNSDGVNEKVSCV

[3] = biological target: T1, 5-HT1A receptors (Homo sapiens, UniProt P08908); settings: cited from earlier work
T1 sequence (P08908 1-422): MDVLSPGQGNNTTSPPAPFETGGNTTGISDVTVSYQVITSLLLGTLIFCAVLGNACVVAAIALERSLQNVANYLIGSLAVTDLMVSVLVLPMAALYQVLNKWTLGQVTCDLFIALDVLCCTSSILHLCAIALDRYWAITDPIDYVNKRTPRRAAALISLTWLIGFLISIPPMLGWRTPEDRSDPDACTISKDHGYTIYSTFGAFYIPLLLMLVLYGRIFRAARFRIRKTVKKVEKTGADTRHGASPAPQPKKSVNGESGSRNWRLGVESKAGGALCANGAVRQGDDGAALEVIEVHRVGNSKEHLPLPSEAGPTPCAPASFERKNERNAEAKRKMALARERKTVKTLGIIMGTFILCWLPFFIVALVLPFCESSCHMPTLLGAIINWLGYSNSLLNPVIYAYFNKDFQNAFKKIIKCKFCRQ

[4] = tested on: ovarian cancer; settings: administration to tumor-bearing mice; cited from earlier work

SMILES | enhancement of killing of Raji cells [1] | level of killing of Raji cells [1] | time to disease progression [4] | tumor weight [4] | also measured
CCCN(CCC)C1CCc2cccc(O)c2C1 (stereo not shown) [8-OH-DPAT, 8-hydroxy-2-(di-n-propylamino)tetralin] | 2-3 fold | approximately 100% | – | – | –
CCCN1C[C@H](CSC)C[C@@H]2c3cccc4[nH]cc(c34)C[C@H]21 [pergolide mesylate] | 2-3 fold | approximately 100% | – | – | –
CN(C)CCc1c[nH]c2cccc(OP(=O)(O)O)c12 [psilocybin] | – | – | – | – | pKi [2]: 8.22; pKi [3]: 6.72
NCCc1c[nH]c2ccc(O)cc12 [serotonin, 5-hydroxytryptamine] | – | – | decreased | increased | –
CN[C@H]1CC[C@@H](c2ccc(Cl)c(Cl)c2)c2ccccc21 [sertraline] | – | – | decreased | increased | –
